Experimental data as given in patent US20230128402A1 (The Trustees of Princeton University, priority 2020, published 2023).

Key:
[1] = target: T1, mALDH1a3 (Mus musculus, UniProt Q9JHW9); experiment: Aldh1a3 enzyme inhibition assay, recombinant mALDH1a3; assay type: biochemical; settings: resorufin fluorescence, 20° C.
T1 construct: made in house; host or cells: E. coli BL21-DE3, pET-Aldh1a3
T1 sequence (Q9JHW9 1-512): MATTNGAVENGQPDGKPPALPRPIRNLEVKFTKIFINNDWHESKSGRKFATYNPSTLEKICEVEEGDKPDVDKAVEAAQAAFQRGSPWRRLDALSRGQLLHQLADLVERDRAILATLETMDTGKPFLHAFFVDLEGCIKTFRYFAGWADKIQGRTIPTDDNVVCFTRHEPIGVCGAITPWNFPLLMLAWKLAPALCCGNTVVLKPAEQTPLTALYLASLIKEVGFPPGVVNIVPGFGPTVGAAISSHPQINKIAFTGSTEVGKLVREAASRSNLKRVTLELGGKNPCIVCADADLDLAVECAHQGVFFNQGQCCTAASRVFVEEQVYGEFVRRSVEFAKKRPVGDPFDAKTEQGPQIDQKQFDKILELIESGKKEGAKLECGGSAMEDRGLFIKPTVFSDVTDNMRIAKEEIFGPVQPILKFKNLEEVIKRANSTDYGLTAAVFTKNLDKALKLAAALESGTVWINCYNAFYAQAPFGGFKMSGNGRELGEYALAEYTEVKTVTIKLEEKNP
Text: (§1) Recombinant enzyme and inhibitor added immediately before assay. Reaction rate measured by resorufin fluorescence.

[2] = test system: ALDH isoforms 1a1, 1a2, 1a3 and 3a1; assay type: cell-based, human
Method: The coding sequences of Aldh1a1, Aldh1a2, Aldh1a3 and Aldh3a1 were cloned from cDNA made from pooled human reference RNA samples. Cloned sequences flanked by Age1 and Xho1 restriction sites were inserted into the pLex lentiviral plasmid. Clones were sequenced and compared against NCBI expressed sequence tags ([…]) for accuracy. […]. Viruses were collected and filtered at 0.45 um, then cells were transduced using polybrene (8 μg/mL) for 12 hours, followed by culture with 1 μg/mL puromycin for the duration of experiments. All viral transduction and selection was performed on a cell population-wide basis.
(§2) Cells were counted, centrifuged and resuspended at 1,000,000 cells/mL in ALDEFLUOR™ buffer (Stemcell Technologies). ALDEFLUOR™ substrate (Stemcell Technologies, 1:200) and test compound or 1 mM DEAB were added to cell suspension and incubated at 37° C. for 45 minutes with vortexing every 15 minutes. Cells were centrifuged and resuspended in ALDEFLUOR™ buffer with DAPI at 5 μg/mL. Samples were analyzed with the BD LSR2 flow cytometry platform. Gating was performed using DEAB as a negative control.
ALDH isoforms 1a1, 1a2, 1a3 and 3a1 were expressed in MCF7 or SUM159 cells, which were subsequently used in an ALDEFLUOR™ assay.

[3] = target: T2, ALDH1a3 (Homo sapiens, UniProt P47895); experiment: Aldh1a3 enzyme inhibition assay, recombinant hALDH1a3; assay type: biochemical; set-up: made in house; host or cells: E. coli BL21-DE3, pET-Aldh1a3; settings: resorufin fluorescence, 20° C.
T2 sequence (P47895 1-512): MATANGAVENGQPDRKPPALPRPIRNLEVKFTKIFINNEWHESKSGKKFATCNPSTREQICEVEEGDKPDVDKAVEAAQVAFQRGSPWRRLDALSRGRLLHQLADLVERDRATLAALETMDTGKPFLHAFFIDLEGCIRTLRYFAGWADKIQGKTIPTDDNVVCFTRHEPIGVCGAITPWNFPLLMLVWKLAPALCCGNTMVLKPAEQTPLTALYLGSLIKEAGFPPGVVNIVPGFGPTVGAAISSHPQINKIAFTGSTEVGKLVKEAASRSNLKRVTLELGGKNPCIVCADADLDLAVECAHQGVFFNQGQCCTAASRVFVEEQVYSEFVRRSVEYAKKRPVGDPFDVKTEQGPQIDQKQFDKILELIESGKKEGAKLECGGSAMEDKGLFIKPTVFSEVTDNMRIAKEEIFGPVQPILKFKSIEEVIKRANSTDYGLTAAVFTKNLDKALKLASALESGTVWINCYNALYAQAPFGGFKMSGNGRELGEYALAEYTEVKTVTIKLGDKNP
Text: as §1

[4] = target: T2, ALDH1a3; experiment: ALDEFLUOR assay in SUM159-M1a-Aldh1a3 cells; assay type: cell-based; set-up: lentiviral vectors containing either the vector backbone or full-length human Aldh1a3; expressed in transfected cells; host or cells: SUM159-M1a human breast cancer cells, lentiviral pLex vector; settings: SUM159-M1a-Aldh1a3 cells; compound at 100 nM
Method: as §2
Gating for background fluorescence was performed using 1 millimolar DEAB as a negative control.
The [inh-min]threshold was set at the lower bound of two standard deviations of control samples, while the IC50 threshold was set at 50% of the average of control samples.
An ALDEFLUOR™ assay was also used to assess the relative activity of several compounds described herein against SUM159-M1a-Aldh1a3 cells.

Compound | IC50 [1] [µM] | IC50 [3] [µM] | Inhi-bitory Activity at 100 nM (%) [4] [%] | Percent of Cells Positive for ALDEFLUOR ™ at 100 nM [4] [%] | ALDH isoform specificity, ALDEFLUOR-positive cells [2]
2-ethyl-N-(7-fluoro-2-oxo-3,4-dihydro-1H-quinolin-6-yl)benzamide [Compound 4] | 0.1 to 0.25 | < 0.1 | 100 | 0.03 | specifically inhibits ALDH1a3 at concentrations below 10 μM
O=C1CCc2cc(NCc3ccccc3)ccc2N1 [Compound 14] | > 5 | > 5 | 11 | 68 | –
O=C1CCc2cc(NCc3cc[nH]c3)c(F)cc2N1 [Compound 17] | > 5 | > 5 | 2 | 75 | –

Continued, in another order:

IC50 [1] [µM] | IC50 [3] [µM] | Inhi-bitory Activity at 100 nM (%) [4] [%] | Percent of Cells Positive for ALDEFLUOR ™ at 100 nM [4] [%] | Compound | ALDH isoform specificity, ALDEFLUOR-positive cells [2]
> 5 | > 5 | 18 | 63 | Cc1cnccc1C(=O)Nc1cc2c(cc1F)NC(=O)CC2 [Compound 15] | –
> 5 | > 5 | 29 | 55 | Cc1cc(C(=O)Nc2cc3c(cc2F)NC(=O)CC3)ccn1 [Compound 16] | –
